According to patent US6037447A, “Glycopeptide compounds” (priority 1998, dated 2000):

Key:
[1] = test system: Staphylococcus epidermidis 270; experiment: Standard broth micro-dilution MIC, Staphylococcus epidermidis 270; assay type: cell-based
Protocol: (§1) The minimal inhibitory concentrations (MICs) were determined using a standard broth micro-dilution assay.

[2] = test system: Enterococcus gallinarum 245; experiment: Standard broth micro-dilution MIC, Enterococcus gallinarum 245; assay type: cell-based
Protocol: as §1

[3] = test system: Escherichia coli EC14; experiment: Standard broth micro-dilution MIC, Escherichia coli EC14; assay type: cell-based
Protocol: as §1

[4] = test system: Staphylococcus aureus 489; experiment: Standard broth micro-dilution MIC, Staphylococcus aureus 489; assay type: cell-based
Protocol: as §1

[5] = test system: Streptococcus pyogenes C203; experiment: Standard broth micro-dilution MIC, Streptococcus pyogenes C203; assay type: cell-based
Protocol: as §1

[6] = test system: Staphylococcus haemolyticus 105; experiment: Standard broth micro-dilution MIC, Staphylococcus haemolyticus 105; assay type: cell-based
Protocol: as §1

[7] = test system: vancomycin-sensitive enterococci; experiment: In Vitro Activity Against Enterococci, vancomycin-sensitive strains; assay type: cell-based, Enterococcus faecium and Enterococcus faecalis; conditions: representative vancomycin-sensitive enterococci (Enterococcus faecium and Enterococcus faecalis)
Protocol: as §1

[8] = test system: Enterococcus faecium 180; experiment: Standard broth micro-dilution MIC, Enterococcus faecium 180; assay type: cell-based
Protocol: as §1

[9] = test system: Staphylococcus aureus SA1199; experiment: Standard broth micro-dilution MIC, Staphylococcus aureus SA1199; assay type: cell-based
Protocol: as §1

[10] = test system: Staphylococcus aureus 447; experiment: Standard broth micro-dilution MIC, Staphylococcus aureus 447; assay type: cell-based
Protocol: as §1

[11] = test system: Staphylococcus aureus SA119913; experiment: Standard broth micro-dilution MIC, Staphylococcus aureus SA119913; assay type: cell-based
Protocol: as §1

[12] = test system: Streptococcus pneumoniae P1; experiment: Standard broth micro-dilution MIC, Streptococcus pneumoniae P1; assay type: cell-based
Protocol: as §1

[13] = test system: Staphylococcus aureus 491; experiment: Standard broth micro-dilution MIC, Staphylococcus aureus 491; assay type: cell-based
Protocol: as §1

[14] = test system: Staphylococcus aureus S13E; assay type: cell-based
Protocol: as §1

[15] = test system: Staphylococcus aureus X778; experiment: Standard broth micro-dilution MIC, Staphylococcus aureus X778; assay type: cell-based
Protocol: as §1

[16] = test system: Enterococcus faecium 180-1; experiment: Standard broth micro-dilution MIC, Enterococcus faecium 180-1; assay type: cell-based
Protocol: as §1

[17] = test system: Enterococcus faecalis 2041; experiment: Standard broth micro-dilution MIC, Enterococcus faecalis 2041; assay type: cell-based
Protocol: as §1

[18] = test system: Enterococcus faecalis 276; experiment: Standard broth micro-dilution MIC, Enterococcus faecalis 276; assay type: cell-based
Protocol: as §1

[19] = test system: Staphylococcus aureus 446; experiment: Standard broth micro-dilution MIC, Staphylococcus aureus 446; assay type: cell-based
Protocol: as §1

[20] = test system: vancomycin-resistant enterococci; experiment: In Vitro Activity Against Enterococci, vancomycin-resistant strains; assay type: cell-based; conditions: representative vancomycin-resistant enterococci (Enterococcus faecium and Enterococcus faecalis)
Protocol: as §1

[21] = test system: Staphylococcus aureus X400; experiment: Standard broth micro-dilution MIC, Staphylococcus aureus X400; assay type: cell-based
Protocol: as §1

[22] = test system: Staphylococcus haemolyticus 415; experiment: Standard broth micro-dilution MIC, Staphylococcus haemolyticus 415; assay type: cell-based
Protocol: as §1

[23] = test system: Staphylococcus aureus SA1199A; experiment: Standard broth micro-dilution MIC, Staphylococcus aureus SA1199A; assay type: cell-based
Protocol: as §1

[24] = test system: Haemophilus influenzae RD; experiment: Standard broth micro-dilution MIC, Haemophilus influenzae RD; assay type: cell-based
Protocol: as §1

Substance | MIC [1] [µg/mL] | MIC [2] [µg/mL] | MIC [4] [µg/mL] | MIC [5] [µg/mL] | MIC [6] [µg/mL] | mean geometric MIC, Vancomycin Sensitive Strains [7] [µg/mL] | MIC [8] [µg/mL] | MIC [9] [µg/mL] | MIC [10] [µg/mL] | MIC [11] [µg/mL] | MIC [12] [µg/mL] | MIC [13] [µg/mL] | MIC [14] [µg/mL] | MIC [15] [µg/mL] | MIC [17] [µg/mL] | MIC [18] [µg/mL] | MIC [19] [µg/mL] | mean geometric MIC, Vancomycin Resistant Strains [20] [µg/mL] | MIC [22] [µg/mL] | MIC [23] [µg/mL] | further results
N^4 -(4-(12-(p-formylphenoxy)-n-dodecyloxy)benzyl)vancomycin [Compound 42] | 4 | 1 | 2 | 0.25 | 2 | 1.1 | 0.5 | 2 | 4 | 4 | 1 | 2 | 4 | 1 | 2 | 4 | 2 | 4.5 | 8 | 1 | MIC [3]: > 64 µg/mL; MIC [16]: 1 µg/mL; MIC [21]: 2 µg/mL
N^4 -(4-(3-(3-(3-(p-formylphenoxy)-n-propoxy)-5-phenylphenoxy)-n-propoxy)benzyl)vancomycin [Compound 45] | 1 | 0.5 | 2 | 0.06 | 0.5 | 0.33 | 0.5 | 0.5 | 1 | 0.5 | 0.06 | 0.5 | 0.5 | 0.5 | 0.125 | 0.25 | 1 | 2.8 | 2 | ≤ 0.06 | MIC [3]: > 64 µg/mL; MIC [21]: 0.5 µg/mL
N^4 -(4-(3-(p-formylphenoxy)-n-propyloxy)benzyl)vancomycin [Compound 34] | 0.25 | 1 | ≤ 0.06 | 0.06 | 0.5 | 0.87 | 0.5 | ≤ 0.06 | ≤ 0.06 | ≤ 0.06 | 0.06 | ≤ 0.06 | ≤ 0.06 | ≤ 0.06 | ≤ 0.06 | ≤ 0.06 | ≤ 0.06 | 53 | 2 | ≤ 0.06 | MIC [16]: ≤ 0.06 µg/mL; MIC [21]: ≤ 0.06 µg/mL
N^4 -(4-(2-(4-(2-(p-formyl-phenoxy)ethoxycarbonyl)benzoyl-oxy)ethoxy)benzyl)vancomycin [Compound 44] | 0.25 | 0.25 | 0.125 | 0.06 | 0.25 | 0.66 | 4 | ≤ 0.06 | 0.125 | ≤ 0.06 | 0.06 | ≤ 0.06 | ≤ 0.06 | ≤ 0.06 | ≤ 0.06 | ≤ 0.06 | 0.125 | 76 | 2 | ≤ 0.06 | MIC [3]: > 64 µg/mL; MIC [24]: > 64 µg/mL; MIC [16]: ≤ 0.06 µg/mL; MIC [21]: ≤ 0.06 µg/mL
N^4 -(4-(3-(p-formylphenoxy)-n-propyloxy)benzyl)A82846B [Compound 46] | 2 | 4 | 0.5 | ≤ 0.06 | 2 | 0.17 | 0.5 | 1 | 2 | 1 | ≤ 0.06 | 0.5 | 0.5 | 0.5 | ≤ 0.06 | 1 | 1 | 4.8 | 4 | 0.125 | MIC [3]: > 64 µg/mL; MIC [16]: ≤ 0.06 µg/mL; MIC [21]: 1 µg/mL
1,3-phenylenebis[oxy-1,3-n-propylene-oxy-4,1-phenylene)methylene]bis-[A82846B,(3-dimethylaminopropyl)-amide] [Compound 71] | 1 | 0.5 | 2 | 0.5 | 2 | 0.38 | 2 | 4 | 4 | 2 | 0.5 | 2 | 2 | 2 | 0.5 | 1 | 4 | 2.4 | 2 | 2 | MIC [16]: 0.5 µg/mL; MIC [21]: 4 µg/mL
N^4 -(4-(8-(p-formylphenoxy)-n-octyloxy)benzyl)A82846B [Compound 47] | 4 | 16 | 4 | ≤ 0.06 | 8 | 1.0 | 0.5 | 16 | 8 | 8 | ≤ 0.06 | 16 | 16 | 8 | 2 | 8 | 8 | 2.8 | 16 | 0.5 | MIC [3]: > 64 µg/mL; MIC [24]: > 64 µg/mL; MIC [16]: 1 µg/mL; MIC [21]: 8 µg/mL
N^4 -(4-(2-(2-(2-(p-formyl-phenoxy)ethoxy)ethoxy)ethoxy)benzyl)A82846B [Compound 43] | 4 | 0.5 | 1 | 0.06 | 1 | 4.6 | 8 | 2 | 4 | 4 | 0.06 | 0.5 | 2 | 2 | 1 | 1 | 2 | > 128 | 8 | 0.5 | MIC [3]: > 64 µg/mL; MIC [24]: > 64 µg/mL; MIC [16]: 0.5 µg/mL; MIC [21]: 2 µg/mL
N^4 -(4-(8-(p-formylphenoxy)-n-octyloxy)benzyl)vancomycin [Compound 40] | 0.25 | 1 |  | 0.06 | 1 | 0.19 | 1 | 0.25 | 0.25 | 1 | 0.06 | ≤ 0.06 | 0.25 | ≤ 0.06 | 0.125 | 0.25 | 0.5 | 11.3 | 4 | ≤ 0.06 | MIC [3]: > 64 µg/mL; MIC [16]: ≤ 0.06 µg/mL
